# Data reported in the supplement of paper PMC6045584.
# ± gives the standard deviation of the averaged measurements.
# Experiments:
# NILOTINIB = compound: Cc1cn(-c2cc(NC(=O)c3ccc(C)c(Nc4nccc(-c5cccnc5)n4)c3)cc(C(F)(F)F)c2)cn1 [NILOTINIB]; test: surviving fraction relative to DMSO-only wells; higher = less growth inhibition; conditions: exposure time: 5 days
# How it was run: (§1)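 In 384-well plates, 250–500 log-phase tumour cells per well were given 24 hours before five days of continuous exposure to inhibitors at 0.5, 1, 5, 10, 50, 100, 500 and 1000 nM. Surviving fraction is luminescence from CellTiter-Glo, normalised to the median of wells containing DMSO alone. Reading took place after 10 minutes at room temperature.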
# [1] = compound: CCc1cc(Nc2nccc(-c3c(-c4ccc(OC)c(C(=O)Nc5c(F)cccc5F)c4)nc4ccccn34)n2)c(OC)cc1N1CCC(N2CCN(S(C)(=O)=O)CC2)CC1; test: as above; conditions: exposure time: 5 days
# How it was run: as §1
Test System,surviving fraction (NILOTINIB; 0.5 nM),surviving fraction (NILOTINIB; 1 nM),surviving fraction (NILOTINIB; 5 nM),surviving fraction (NILOTINIB; 10 nM),surviving fraction (NILOTINIB; 50 nM),surviving fraction (NILOTINIB; 100 nM),surviving fraction (NILOTINIB; 500 nM),surviving fraction (NILOTINIB; 1000 nM),surviving fraction ([1]; 0.5 nM),surviving fraction ([1]; 1 nM),surviving fraction ([1]; 5 nM),surviving fraction ([1]; 10 nM),surviving fraction ([1]; 50 nM),surviving fraction ([1]; 100 nM),surviving fraction ([1]; 500 nM),surviving fraction ([1]; 1000 nM)
HUO3N1 BONE,0.993 ± 0.012,0.986 ± 0.048,1.12 ± 0.047,1.08 ± 0.038,0.985 ± 0.051,1 ± 0.041,1.005 ± 0.0097,0.936 ± 0.054,0.94 ± 0.044,0.986 ± 0.032,1 ± 0.028,1.05 ± 0.06,1.01 ± 0.011,0.995 ± 0.052,0.947 ± 0.031,0.908 ± 0.024
JIMT1 BREAST,0.946 ± 0.041,0.955 ± 0.045,0.975 ± 0.039,0.964 ± 0.07,0.931 ± 0.054,0.958 ± 0.086,0.97 ± 0.045,0.924 ± 0.054,0.977 ± 0.04,1.01 ± 0.014,1.01 ± 0.011,1.02 ± 0.017,0.992 ± 0.032,1.04 ± 0.027,1 ± 0.031,0.986 ± 0.032
JURKAT HAEMATOPOIETIC AND LYMPHOID TISSUE,1.1 ± 0.025,1.1 ± 0.027,1.07 ± 0.029,1.06 ± 0.021,1.042 ± 0.009,1.02 ± 0.044,1.04 ± 0.026,0.91 ± 0.057,1.06 ± 0.011,1.07 ± 0.029,1.06 ± 0.027,1.07 ± 0.021,1.05 ± 0.022,1.01 ± 0.029,0.973 ± 0.034,0.886 ± 0.037
KPD BONE,1.04 ± 0.097,0.981 ± 0.038,1.06 ± 0.032,1.02 ± 0.026,1.03 ± 0.03,1.11 ± 0.055,0.925 ± 0.033,0.841 ± 0.028,0.907 ± 0.066,0.947 ± 0.071,1 ± 0.021,1.03 ± 0.062,0.989 ± 0.021,1.049 ± 0.0079,0.89 ± 0.081,0.849 ± 0.036
LM7 BONE,1.02 ± 0.027,0.9597 ± 0.0087,1.07 ± 0.03,1.01 ± 0.043,0.898 ± 0.084,0.957 ± 0.076,0.79 ± 0.02,0.76 ± 0.07,0.918 ± 0.051,0.885 ± 0.043,0.997 ± 0.08,0.97 ± 0.074,1.1 ± 0.11,1.01 ± 0.081,0.898 ± 0.013,0.758 ± 0.03
LNCAP PROSTATE,1.12 ± 0.083,1.13 ± 0.12,1.08 ± 0.011,1.01 ± 0.072,1.14 ± 0.076,1.1 ± 0.15,1.16 ± 0.031,1.03 ± 0.066,0.88 ± 0.064,0.964 ± 0.16,0.996 ± 0.08,0.849 ± 0.096,0.895 ± 0.15,0.93 ± 0.19,0.882 ± 0.063,0.632 ± 0.1
MCF7 BREAST,0.969 ± 0.072,0.912 ± 0.05,0.948 ± 0.023,0.943 ± 0.017,0.992 ± 0.064,0.995 ± 0.073,0.942 ± 0.068,0.97 ± 0.078,0.857 ± 0.036,0.905 ± 0.05,0.8677 ± 0.0068,0.874 ± 0.059,0.876 ± 0.013,0.897 ± 0.05,0.844 ± 0.027,0.769 ± 0.027
MDAMB134 BREAST,0.803 ± 0.068,1.15 ± 0.12,0.865 ± 0.013,0.808 ± 0.15,0.74 ± 0.12,0.72 ± 0.099,0.672 ± 0.034,0.716 ± 0.13,1.21 ± 0.028,1.02 ± 0.034,0.988 ± 0.11,1.05 ± 0.13,1.03 ± 0.27,0.906 ± 0.12,0.882 ± 0.16,0.996 ± 0.18
MDAMB157 BREAST,1.11 ± 0.045,0.957 ± 0.047,1.09 ± 0.083,1.11 ± 0.041,1.1 ± 0.066,1.07 ± 0.018,0.932 ± 0.17,0.928 ± 0.063,0.834 ± 0.049,0.96 ± 0.15,0.973 ± 0.12,0.996 ± 0.052,0.934 ± 0.058,1.04 ± 0.094,0.94 ± 0.06,0.982 ± 0.14
MDAMB231 BREAST,0.935 ± 0.052,0.919 ± 0.025,0.866 ± 0.036,0.839 ± 0.038,0.763 ± 0.043,0.857 ± 0.017,0.923 ± 0.036,0.866 ± 0.039,0.973 ± 0.025,1 ± 0.03,1.01 ± 0.033,1.03 ± 0.017,0.962 ± 0.024,1 ± 0.019,0.906 ± 0.022,0.875 ± 0.018
MDAMB361 BREAST,0.632 ± 0.033,0.953 ± 0.057,0.69 ± 0.11,0.743 ± 0.06,0.533 ± 0.078,0.601 ± 0.059,0.619 ± 0.02,0.539 ± 0.1,0.885 ± 0.088,0.947 ± 0.053,1.04 ± 0.051,0.887 ± 0.052,0.879 ± 0.044,0.998 ± 0.045,0.826 ± 0.041,0.726 ± 0.064
